Values joined by “and” are separate entries in the source; they are usually repeats but may differ in a detail not shown here. Identical values can stand only once.
Test system: 648629-189-R-J1-PDC complex spheroids viability
Test: Anticancer human tumor 648629-189-R-J1-PDC patient-derived bladder carcinoma cell line growth inhibition [CLK]
Details: for viability, T/C: stronger effect = lower value
How it was run: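 Patient-derived tumor cells grown as complex spheroids with HUVEC endothelial cells and mesenchymal stem cells, treated with drug combinations. Concentrations descend in half-log steps from near clinical Cmax, or from 10 microM if Cmax unknown.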

[1] = curve of first compound, second compound 0.0316 µM
[2] = curve of first compound, second compound 0.1 µM
[3] = curve of first compound, second compound 0.316 µM
[4] = curve of first compound, second compound 1 µM
[5] = curve of first compound, second compound 3.16 µM
[6] = curve of first compound, second compound 10 µM
[7] = second compound 0.0316 µM, first compound 0.0316 µM
[8] = second compound 0.0316 µM, first compound 0.1 µM
[9] = second compound 0.0316 µM, first compound 0.316 µM
[10] = second compound 0.0316 µM, first compound 1 µM
[11] = second compound 0.0316 µM, first compound 3.16 µM
[12] = second compound 0.0316 µM, first compound 10 µM
[13] = second compound 0.1 µM, first compound 0.0316 µM
[14] = second compound 0.1 µM, first compound 0.1 µM
[15] = second compound 0.1 µM, first compound 0.316 µM
[16] = second compound 0.1 µM, first compound 1 µM
[17] = second compound 0.1 µM, first compound 3.16 µM
[18] = second compound 0.1 µM, first compound 10 µM
[19] = second compound 0.316 µM, first compound 0.0316 µM
[20] = second compound 0.316 µM, first compound 0.1 µM
[21] = second compound 0.316 µM, first compound 0.316 µM
[22] = second compound 0.316 µM, first compound 1 µM
[23] = second compound 0.316 µM, first compound 3.16 µM
[24] = second compound 0.316 µM, first compound 10 µM
[25] = second compound 1 µM, first compound 0.0316 µM
[26] = second compound 1 µM, first compound 0.1 µM
[27] = second compound 1 µM, first compound 0.316 µM
[28] = second compound 1 µM, first compound 1 µM
[29] = second compound 1 µM, first compound 3.16 µM
[30] = second compound 1 µM, first compound 10 µM
[31] = second compound 3.16 µM, first compound 0.0316 µM
[32] = second compound 3.16 µM, first compound 0.1 µM
[33] = second compound 3.16 µM, first compound 0.316 µM
[34] = second compound 3.16 µM, first compound 1 µM
[35] = second compound 3.16 µM, first compound 3.16 µM
[36] = second compound 3.16 µM, first compound 10 µM
[37] = second compound 10 µM, first compound 0.0316 µM
[38] = second compound 10 µM, first compound 0.1 µM
[39] = second compound 10 µM, first compound 0.316 µM
[40] = second compound 10 µM, first compound 1 µM
[41] = second compound 10 µM, first compound 3.16 µM
[42] = second compound 10 µM, first compound 10 µM
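Throughout, for viability, T/C: drug exposure lasted seven days before viability readout; 100% = DMSO vehicle control wells.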

For `C#Cc1c(F)ccc2cc(O)cc(-c3ncc4c(N5CC6CCC(C5)N6)nc(OCC56CCCN5CC(F)C6)nc4c3F)c12` (stereo unspecified), the viability, T/C (compound 0.0316 µM) was 97.9% and 109%, the viability, T/C (compound 0.1 µM) was 94.2% and 99.3% and the viability, T/C (compound 0.316 µM) was 91.3% and 98%. For the same molecule, the viability, T/C (compound 1 µM) was 91% and 107%, the viability, T/C (compound 3.16 µM) was 94.4% and 111% and the viability, T/C (compound 10 µM) was 88.9% and 101%. It also gave an IC50 (curve of compound) greater than 10 µM.
In the case of `Nc1ccccc1NC(=O)c1ccc(CNC(=O)OCc2cccnc2)cc1` + CN1CCN(c2cc(C(=O)Nc3cc4cc(-c5cnn(C)c5)ccc4cn3)ccn2)CC1, the IC50 [1] is reported as 1.87 µM, the IC50 [2] is reported as 1.84 µM and the IC50 [3] is reported as less than 0.0316 µM. It also gave an IC50 [4] of less than 0.0316 µM, an IC50 [5] of less than 0.0316 µM and an IC50 [6] of less than 0.0316 µM. For the same molecule, the viability, T/C [7] was 124%, the viability, T/C [8] was 125% and the viability, T/C [9] was 96.9%. For the same molecule, the viability, T/C [10] was 72.2%, the viability, T/C [11] was 32.5% and the viability, T/C [12] was 1.56%. For the same molecule, the viability, T/C [13] was 107%, the viability, T/C [14] was 109% and the viability, T/C [15] was 96.9%. For the same molecule, the viability, T/C [16] was 71.7%, the viability, T/C [17] was 31% and the viability, T/C [18] was 1.87%. It also gave a viability, T/C [19] of 37.4%, a viability, T/C [20] of 46.7% and a viability, T/C [21] of 39.1%. For the same molecule, the viability, T/C [22] was 33.8%, the viability, T/C [23] was 7.95% and the viability, T/C [24] was 0.08%. For the same molecule, the viability, T/C [25] was 0.41%, the viability, T/C [26] was 0.4% and the viability, T/C [27] was 0.31%. For the same molecule, the viability, T/C [28] was 0.07%, the viability, T/C [29] was 0.1% and the viability, T/C [30] was 0.53%. The viability, T/C [31] was 0.08%, the viability, T/C [32] was 1.97% and the viability, T/C [33] was 0.1%. The viability, T/C [34] was 0.07%, the viability, T/C [35] was 0.07% and the viability, T/C [36] was 2.02%. For the same molecule, the viability, T/C [37] was 0.04%, the viability, T/C [38] was 0.11% and the viability, T/C [39] was 0.12%. The viability, T/C [40] was 0.14%, the viability, T/C [41] was 2.26% and the viability, T/C [42] was 0.17%.
With `Nc1ccccc1NC(=O)c1ccc(CNC(=O)OCc2cccnc2)cc1` + CNC(=O)c1ccc(Nc2nc(OC3CCCC3)c3c(-c4ccc5nc(C)oc5c4)c[nH]c3n2)c(OC)c1 the IC50 [1] was 1.59 µM, the IC50 [2] was 1.56 µM and the IC50 [3] was less than 0.0316 µM. It also gave an IC50 [4] of less than 0.0316 µM, an IC50 [5] of less than 0.0316 µM and an IC50 [6] of less than 0.0316 µM. It also gave a viability, T/C [7] of 104%, a viability, T/C [8] of 93.5% and a viability, T/C [9] of 96.7%. It also gave a viability, T/C [10] of 63.9%, a viability, T/C [11] of 27.1% and a viability, T/C [12] of 0.72%. The viability, T/C [13] was 86.6%, the viability, T/C [14] was 90.8% and the viability, T/C [15] was 82.4%. For the same molecule, the viability, T/C [16] was 65.1%, the viability, T/C [17] was 26.2% and the viability, T/C [18] was 0.23%. It also gave a viability, T/C [19] of 30.3%, a viability, T/C [20] of 22.9% and a viability, T/C [21] of 27.1%. It also gave a viability, T/C [22] of 27.5%, a viability, T/C [23] of 17.8% and a viability, T/C [24] of 0.7%. It also gave a viability, T/C [25] of 17.4%, a viability, T/C [26] of 19.8% and a viability, T/C [27] of 20.5%. It also gave a viability, T/C [28] of 18.4%, a viability, T/C [29] of 12.6% and a viability, T/C [30] of 0.5%. It also gave a viability, T/C [31] of 18.9%, a viability, T/C [32] of 18.3% and a viability, T/C [33] of 19.3%. For the same molecule, the viability, T/C [34] was 18.5%, the viability, T/C [35] was 16.4% and the viability, T/C [36] was 0.52%. For the same molecule, the viability, T/C [37] was 21.7%, the viability, T/C [38] was 16.4% and the viability, T/C [39] was 19.5%. The viability, T/C [40] was 23.9%, the viability, T/C [41] was 15.6% and the viability, T/C [42] was 1.56%.
